Test results: patent US9040248B2, “Kits for detecting and monitoring endocrine disrupting chemicals (EDCs)” (The United States of America, as represented by the …, priority 2012, dated 2015)
Entries after “also recorded” stand apart in the source; their conditions may differ.

Tests used:
[1] = target: T1, GFP-GR (GFP-tagged glucocorticoid receptor) (Rattus norvegicus, UniProt P06536, C656G/D98G); experiment: GFP-GR cytoplasm-to-nucleus translocation assay in 3617 cells; type: cell-based; details: 30 min treatment; water samples 100×
T1 construct: expressed in transfected cells; host or cells: 3617 cells (derivative of the 3134 mouse mammary adenocarcinoma line), tetracycline-repressible promoter
Protocol: (§1) For biological testing, samples prepared as above were reconstituted in DMSO and diluted in growth media to a final 1,000× concentration from the original water volume while maintaining DMSO at <0.2%. Samples were added to cells for 30 minutes at 100× concentration or as indicated in the text.
(§2) Prior to imaging, cells were grown overnight on 22-mm^2 coverslips in DMEM medium containing 10% charcoal stripped serum (Hyclone, Logan, Utah) without tetracycline (to allow the expression of the GFP-GR or GFP-AR, respectively) at a density of 2×10^5 per 6-well plate. For the automated experiments conducted in 96 or 384 well plates, cell density was 10,000 or 2,500 cells per well, respectively. Cells were treated with vehicle control, hormones (100 nM) or water samples for 30 min at 37° C. at a final concentration of 100× for water samples (unless otherwise specified). Additional negative controls contained samples that tested the activity of the POCIS membranes themselves.
Upon treatment, cells were fixed with 4% paraformaldehyde in PBS for 15 minutes and washed three times with PBS. Cells on the 22-mm^2 coverslips were mounted in […]® mounting media with DAPI (Vector Laboratories, Inc.) and examined on a Leica DMRA microscope with Leica 100×1.3-N.A. oil immersion objective. Images were acquired in green (GFP-GR and GFP-AR) and UV (DAPI) channel with SenSys (Photometrics) camera with KAF1400 chip configured to collect 0.067-μm-diameter pixels. […]
(§3) A Perkin Elmer Opera Image Screening System was used for fully automated collection of fluorescence images of cells. This system employed a 40× water immersion objective lens, laser illuminated Nipkow disk, and cooled CCD cameras to digitally capture high resolution confocal fluorescence micrographs (300 nm pixel size with 2×2 camera pixel binning). […] The algorithm also measured the mean GFP-GR or GFP-AR intensity in both compartments, and translocation was calculated as a ratio of these intensities. […]

[2] = target: T2, GFP-AR (GFP-tagged androgen receptor, eGFP-hAR) (Homo sapiens, UniProt P10275); experiment: GFP-AR cytoplasm-to-nucleus translocation assay in 3108 cells; type: cell-based; details: 30 min treatment, hormones 100 nM or known concentrations, water samples 100×
T2 construct: expressed in transfected cells; host or cells: 3108 cells (derivative of the 3134 mouse mammary adenocarcinoma line), tetracycline-repressible promoter
Protocol: as §1
as §2, with “Additional negative controls contained samples that tested the activity of the POCIS membranes themselves.” left out
as §3

Structure (SMILES)	GFP-GR nuclear translocation (in words) [1]	GFP-AR nuclear translocation (in words) [2]	GFP-AR nuclear translocation (in words) ([2]; listed as androst-4-en-3,6-dione)
C[C@@]12CCC[C@H]1[C@@H]1CC(=O)C3=CC(=O)CC[C@]3(C)[C@H]1CC2 (single isomer, unassigned) [Androst-4-en-3,6-dione]	did not induce GFP-GR translocation	induced GFP-tagged androgen receptor (GFP-AR) translocation	translocated to the nucleus in concentration-dependent manner; also recorded: induces concentration-dependent translocation
CCNc1nc(Cl)nc(NC(C)C)n1 [atrazine]	did not induce GFP-GR translocation		
C[C@]12C[C@H](O)[C@H]3[C@@H](CCC4=CC(=O)CC[C@@]43C)[C@@H]1CC[C@@H]2C(=O)CO [corticosterone]	translocates to the nucleus in a concentration-dependent manner		
